Assay results published in patent US20260364184A1, “COMPOUND BASED ON OXOISOINDOLINYL-SUBSTITUTED TETRAHYDROPYRIMIDINE-DIONE AND USE THEREOF” (GLUETACS THERAPEUTICS (SHANGHAI) CO., LTD., priority 2023, published 2026).
Each block holds one compound with its values, some of them ahead of it.

Columns and labels:
[1] = system: Human acute lymphocytic leukemia T lymphocytes cell line (CCRF-CEM); experiment: Inhibition of CCRF-CEM cell proliferation (CellTiter luminescent viability); assay type: cell-based; settings: Homo sapiens, 96 h, Table IH2, BCL-2 inhibitor-based; for inhibition at 0.01 µM: 10 nM, read-out: Inhibition Rate at 10 nM (%); for inhibition at 0.5 µM: 500 nM, read-out: Inhibition Rate at 500 nM (%)
[2] = system: Human prostate cancer cell line (NCI-H358); experiment: Inhibition of NCI-H358 cell proliferation (CellTiter luminescent viability); settings: Table IH1, BCL-2 inhibitor-based, 96 hours; for inhibition at 0.01 µM: NCI-H358, 10 nM, read-out: Inhibition Rate at 10 nM (%); for inhibition at 0.5 µM: NCI-H358, 500 nM, read-out: Inhibition Rate at 500 nM (%)
Method: The tumor cells used herein were cultured in a cell culture medium listed in table 3 at 37 °C in an incubator with 5% CO2. Prior to experimentation, all cell lines used were correctly identified by STR profiling, and tested negative for mycoplasma contamination using a mycoplasma detection kit through routine screenings.
The IC50 values of the compounds of the present disclosure (including the compounds in Table 1, Table 2, and Examples 1-468) were determined using the CellTiter-Meiluncell Luminescent Cell Viability Assay Kit from Dalian Meilun Biotech Co., Ltd. The detailed procedure is as follows: Tumor cells were seeded in 96-well cell culture plates at the densities specified in Table 4. On the following day, the test compounds of the present disclosure were subjected to serial dilution. The dilution can be performed according to one of the following two methods: • (1) The first dilution method: The test compounds of the present disclosure (including the compounds in Table 1, Table 2, and Examples 1-468) were subjected to 5-fold serial dilutions starting from a highest concentration of 2000 μM, resulting in a total of 9 concentrations from high to low (2000, 400, 80, 16, 3.2, 0.64, 0.128, 0.0256, 0.00512 μM). Subsequently, 0.5 μL of the test compound dilution was transferred into the 96-well plate containing the cells, with each well containing 100 μL of cell culture medium. […] Into the 96-well plate, the diluted test compounds and corresponding detection reagents were added, resulting in final test compound concentrations of 500 nM and 10 nM, respectively. The experimental procedure is described below using the diluted 2 μM test compound as an example.
0.5 μL of the aforementioned diluted compound of the present disclosure (including the compounds in Table 1, Table 2, and Examples 1-468) was added to the seeded cells in 100 μL of medium, yielding a final test compound concentration of 10 nM. After the cells were treated with the compounds of the present disclosure for a specified period, the cell viability assay reagent was added to the culture medium according to the kit's instructions to determine cell viability. […] All controls were treated using the same procedure as the compounds of the present disclosure. The growth inhibition curves for the compounds of the present disclosure were plotted using Prism GraphPad software, and the IC50 values were calculated therefrom.

[3] = system: Human Acute T Lymphoblastic Leukemia Cells (Molt-4); experiment: Inhibition of Molt-4 cell proliferation (CellTiter luminescent viability); assay type: cell-based; settings: Homo sapiens, MOLT-4, 96 h, Table IH3, BCL-2 inhibitor-based, 96 hours; for inhibition at 0.01 µM: Molt-4, 10 nM, read-out: Inhibition Rate at 10 nM (%); for inhibition at 0.5 µM: Molt-4, 500 nM, read-out: Inhibition Rate at 500 nM (%)
BRM = target: T1, BRM (Homo sapiens, UniProt P51531); experiment: Western blot degradation of BRM (SMARCA2); assay type: cell-based; settings: Molt-4 Cell; 24 hours
T1 construct: expression of target proteins in cells; endogenous in cells
T1 sequence (P51531 whole entry): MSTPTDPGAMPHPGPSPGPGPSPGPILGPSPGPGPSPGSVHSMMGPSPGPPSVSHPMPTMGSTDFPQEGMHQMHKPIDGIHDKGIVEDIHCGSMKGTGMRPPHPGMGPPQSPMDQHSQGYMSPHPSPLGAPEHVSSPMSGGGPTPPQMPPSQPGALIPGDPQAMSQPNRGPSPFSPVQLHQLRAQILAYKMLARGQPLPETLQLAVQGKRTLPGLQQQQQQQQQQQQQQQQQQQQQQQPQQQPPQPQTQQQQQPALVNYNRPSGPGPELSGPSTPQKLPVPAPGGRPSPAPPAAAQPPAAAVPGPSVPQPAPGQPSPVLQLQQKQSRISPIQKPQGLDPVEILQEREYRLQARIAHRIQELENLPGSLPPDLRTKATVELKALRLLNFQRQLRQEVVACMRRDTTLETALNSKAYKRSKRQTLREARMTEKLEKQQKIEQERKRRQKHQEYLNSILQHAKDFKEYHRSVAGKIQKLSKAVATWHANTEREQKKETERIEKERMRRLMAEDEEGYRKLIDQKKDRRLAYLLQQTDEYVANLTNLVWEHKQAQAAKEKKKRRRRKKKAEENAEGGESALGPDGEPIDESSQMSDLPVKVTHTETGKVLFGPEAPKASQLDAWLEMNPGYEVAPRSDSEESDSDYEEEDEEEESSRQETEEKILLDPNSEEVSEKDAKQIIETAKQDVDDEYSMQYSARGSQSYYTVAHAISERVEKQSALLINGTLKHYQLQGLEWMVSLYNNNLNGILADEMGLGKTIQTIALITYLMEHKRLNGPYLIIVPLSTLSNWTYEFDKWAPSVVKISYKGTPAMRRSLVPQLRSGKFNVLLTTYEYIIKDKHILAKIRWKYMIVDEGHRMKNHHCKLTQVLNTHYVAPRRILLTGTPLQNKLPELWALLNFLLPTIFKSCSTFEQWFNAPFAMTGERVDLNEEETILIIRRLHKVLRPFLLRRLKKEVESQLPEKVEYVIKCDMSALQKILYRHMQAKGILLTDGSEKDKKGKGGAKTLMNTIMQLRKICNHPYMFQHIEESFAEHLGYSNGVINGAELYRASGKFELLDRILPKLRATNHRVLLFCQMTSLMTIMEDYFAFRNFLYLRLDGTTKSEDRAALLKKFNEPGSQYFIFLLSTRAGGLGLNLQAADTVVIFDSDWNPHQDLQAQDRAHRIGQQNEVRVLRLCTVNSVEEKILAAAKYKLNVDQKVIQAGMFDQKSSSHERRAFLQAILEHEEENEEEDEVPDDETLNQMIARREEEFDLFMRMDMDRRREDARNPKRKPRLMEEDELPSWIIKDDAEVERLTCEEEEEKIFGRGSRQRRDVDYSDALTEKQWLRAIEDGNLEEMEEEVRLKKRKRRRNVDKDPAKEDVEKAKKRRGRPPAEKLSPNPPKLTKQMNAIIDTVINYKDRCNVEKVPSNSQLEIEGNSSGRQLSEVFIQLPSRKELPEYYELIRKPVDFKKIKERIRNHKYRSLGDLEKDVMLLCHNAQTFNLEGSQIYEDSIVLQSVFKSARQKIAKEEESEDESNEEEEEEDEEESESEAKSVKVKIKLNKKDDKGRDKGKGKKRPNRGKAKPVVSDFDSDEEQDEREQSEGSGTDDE
Method: (§1) Conventional Western blot assay was performed to evaluate the effects of the compounds of the present disclosure on the expression of target proteins in cells.
(§2) (1) Cell Seeding and Protein Harvesting: The selected cells were processed according to the cell seeding procedure and protein harvesting procedure in Table II-2.
(§3) (2) To the collected supernatant, 5×SDS sample loading buffer was added, followed by denaturation at 95 °C for 5 minutes. The denatured samples were then separated by SDS-PAGE electrophoresis on a polyacrylamide gel. Proteins were transferred to a nitrocellulose membrane (0.45 μm NC membrane), blocked with blocking buffer at room temperature for 1 hour, and subjected to antibody incubation and development procedures according to the antibody manufacturer's instructions (Cell Signaling Technology).
(§4) Half-Maximal Degradation Concentration value (the drug concentration required for degrading proteins by 50%, abbreviated as DC50) reads method: comparing the grayscale values of Western blot bands from drug-treated samples with those from blank DMSO-treated controls, and identifying the drug concentration range at which the grayscale value is half that of the DMSO-treated control bands.
(§5) DC50 values can be calculated using ImageJ software to measure grayscale values of Western blot bands from drug-treated samples. The concentration-response curve is fitted to estimate the drug concentration corresponding to half the grayscale value.
(§6) Target protein remaining (%) refers to the percentage of target protein remaining in cells after treatment with protein degrader compounds.
(§7) Calculation method for target protein remaining (%): Use ImageJ software to measure grayscale values of Western blot bands from drug (protein degrader)-treated samples. The grayscale value of drug-treated bands is divided by that of internal control protein bands, and the resulting quotient is normalized to obtain the relative percentage of remaining target protein after protein degrader treatment.
(§8) Target protein degradation rate (%)=1−target protein remaining (%).

BRG1 = target: T2, BRG1 (Homo sapiens, UniProt P51532); experiment: Western blot degradation of BRG1 (SMARCA4); assay type: cell-based; settings: Molt-4 Cell; 24 hours
T2 construct: expression of target proteins in cells; endogenous in cells
T2 sequence (P51532 whole entry): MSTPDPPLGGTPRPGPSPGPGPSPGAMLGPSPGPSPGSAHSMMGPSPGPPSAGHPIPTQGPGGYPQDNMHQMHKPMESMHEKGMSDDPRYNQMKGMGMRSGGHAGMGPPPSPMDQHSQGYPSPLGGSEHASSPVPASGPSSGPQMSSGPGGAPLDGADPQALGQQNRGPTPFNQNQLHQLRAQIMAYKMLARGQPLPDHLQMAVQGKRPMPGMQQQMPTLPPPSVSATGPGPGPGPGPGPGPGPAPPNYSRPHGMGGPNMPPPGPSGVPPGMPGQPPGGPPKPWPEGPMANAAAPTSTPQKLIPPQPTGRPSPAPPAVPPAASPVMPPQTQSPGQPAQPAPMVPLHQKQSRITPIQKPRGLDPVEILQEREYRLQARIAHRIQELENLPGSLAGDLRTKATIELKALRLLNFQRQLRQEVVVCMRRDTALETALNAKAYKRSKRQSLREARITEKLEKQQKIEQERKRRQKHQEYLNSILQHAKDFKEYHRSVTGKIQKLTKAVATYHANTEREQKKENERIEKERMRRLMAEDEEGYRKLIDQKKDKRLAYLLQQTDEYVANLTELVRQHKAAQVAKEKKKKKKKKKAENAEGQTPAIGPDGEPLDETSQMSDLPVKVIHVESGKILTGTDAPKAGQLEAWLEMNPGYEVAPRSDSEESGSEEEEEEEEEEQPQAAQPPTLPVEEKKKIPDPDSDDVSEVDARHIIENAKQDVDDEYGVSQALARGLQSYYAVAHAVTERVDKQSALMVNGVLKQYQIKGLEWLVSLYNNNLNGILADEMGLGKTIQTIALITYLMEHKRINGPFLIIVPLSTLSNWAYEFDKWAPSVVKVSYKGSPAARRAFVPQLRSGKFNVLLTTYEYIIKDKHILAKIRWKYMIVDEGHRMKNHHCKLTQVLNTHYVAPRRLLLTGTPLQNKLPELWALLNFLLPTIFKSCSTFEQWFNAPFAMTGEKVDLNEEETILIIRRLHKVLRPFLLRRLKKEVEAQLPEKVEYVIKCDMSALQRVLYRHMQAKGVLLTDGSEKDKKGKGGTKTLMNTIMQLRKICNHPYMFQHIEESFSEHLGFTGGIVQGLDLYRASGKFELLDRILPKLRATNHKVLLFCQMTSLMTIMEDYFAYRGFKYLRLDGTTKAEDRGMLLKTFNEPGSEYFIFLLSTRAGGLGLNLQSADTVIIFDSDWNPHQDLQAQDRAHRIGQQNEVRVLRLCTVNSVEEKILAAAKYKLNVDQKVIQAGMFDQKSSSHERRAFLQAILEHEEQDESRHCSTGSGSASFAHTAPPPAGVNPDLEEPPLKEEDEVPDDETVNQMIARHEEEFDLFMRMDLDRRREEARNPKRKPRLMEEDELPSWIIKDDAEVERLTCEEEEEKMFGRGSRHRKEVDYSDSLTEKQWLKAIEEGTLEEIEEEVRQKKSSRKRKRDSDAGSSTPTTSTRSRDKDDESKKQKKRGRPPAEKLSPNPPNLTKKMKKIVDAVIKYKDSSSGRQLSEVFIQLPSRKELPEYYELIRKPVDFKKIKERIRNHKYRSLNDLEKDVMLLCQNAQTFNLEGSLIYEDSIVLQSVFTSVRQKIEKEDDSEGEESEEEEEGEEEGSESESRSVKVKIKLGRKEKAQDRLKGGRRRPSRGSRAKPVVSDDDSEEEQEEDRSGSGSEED
Method: as §1, §2, §3, §4, §5, §6, §7, §8

AKT = experiment: Western blot degradation of AKT; assay type: cell-based; settings: hPBMC Cell; 24 hours
Method: as §1, §2, §3, §4, §5, §6, §7, §8

[4] = system: Human neuroblastoma cell line (SK-N-AS); experiment: Inhibition of SK-N-AS cell proliferation (CellTiter luminescent viability); assay type: cell-based; settings: Table IK1, AKT inhibitor-based, 96 hours; for inhibition at 0.01 µM: 10 nM, read-out: Inhibition Rate at 10 nM (%); for inhibition at 0.5 µM: 500 nM, read-out: Inhibition Rate at 500 nM (%)
[5] = target: T3, human Cereblon WT GST-tagged protein (CRBN) (Homo sapiens, UniProt Q96SW2); experiment: CRBN binding by HTRF (Cereblon binding kit)
T3 construct: purchased CISBIO 64BDCRBNPEH
T3 sequence (Q96SW2 whole entry): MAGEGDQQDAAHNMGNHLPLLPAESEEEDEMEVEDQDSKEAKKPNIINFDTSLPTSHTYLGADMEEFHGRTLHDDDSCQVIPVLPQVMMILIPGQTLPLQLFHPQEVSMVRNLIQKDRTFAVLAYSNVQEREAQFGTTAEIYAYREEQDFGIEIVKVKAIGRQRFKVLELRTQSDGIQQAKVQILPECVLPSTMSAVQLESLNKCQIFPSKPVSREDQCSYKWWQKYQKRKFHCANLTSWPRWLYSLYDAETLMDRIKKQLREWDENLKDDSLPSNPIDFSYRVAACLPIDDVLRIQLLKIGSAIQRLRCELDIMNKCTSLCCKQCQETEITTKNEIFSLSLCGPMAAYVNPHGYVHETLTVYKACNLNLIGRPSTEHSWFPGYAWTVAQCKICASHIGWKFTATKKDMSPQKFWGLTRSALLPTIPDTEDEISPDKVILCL
In short: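 GST-tagged human Cereblon WT was incubated 3 h at room temperature with compound, thalidomide-Re tracer and Eu anti-GST antibody. Final compound concentrations were 10 to 0.00064 µM (7 points) or 2 and 0.5 µM. Inhibition rate was calculated from HTRF 665/620 nm ratios versus solvent and blank controls.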

Compound: CC1(C)CCC(CN2CCN(c3ccc(C(=O)NS(=O)(=O)c4ccc(NCC5CCOCC5)c([N+](=O)[O-])c4)c(Oc4cnc5[nH]ccc5c4)c3)CC2)=C(c2ccc(Cl)cc2)C1 [ABT-199, Venetoclax, reference compound]
- inhibition at 0.01 µM [1]: -5 to 0%
- inhibition at 0.5 µM [1]: -5 to 0%
- inhibition at 0.01 µM [2]: 5 to 10%
- inhibition at 0.5 µM [2]: 5 to 10%
- inhibition at 0.01 µM [3]: -5 to 0%
- inhibition at 0.5 µM [3]: 30 to 40%

Compound: Cn1ncc(Cl)c1-c1cc(C(=O)N[C@@H](Cc2cccc(F)c2)CN2CCN(Cc3ccc4c(c3)CN(N3CCC(=O)NC3=O)C4=O)CC2)sc1Cl [GT-08576, (S)-5-chloro-4-(4-chloro-1-methyl-1H-pyrazol-5-yl)-N-(1-(4-((2-(2,4-dioxotetrahydropyrimidin-1(2H)-yl)-1-oxoisoindolin-5-yl)methyl)piperazin-1-yl)-3-(3-fluorophenyl)propan-2-yl)thiophene-2-carboxamide]
- Degradation of substrate protein AKT (substrate protein remaining %) (AKT): A (0%≤substrate protein remaining %≤80%)
- inhibition at 0.01 µM [4]: 15 to 20%
- inhibition at 0.5 µM [4]: 20 to 30%

Compound: Cn1ncc(Cl)c1-c1cc(C(=O)N[C@H](CNCc2ccc3c(c2)CN(N2CCC(=O)NC2=O)C3=O)Cc2ccc(F)c(F)c2)oc1Cl [GT-08574, (S)-5-chloro-4-(4-chloro-1-methyl-1H-pyrazol-5-yl)-N-(1-(3,4-difluorophenyl)-3-(((2-(2,4-dioxotetrahydropyrimidin-1(2H)-yl)-1-oxoisoindolin-5-yl)methyl)amino)propan-2-yl) furan-2-carboxamide]
- Degradation of substrate protein AKT (substrate protein remaining %) (AKT): A (0%≤substrate protein remaining %≤80%)
- inhibition at 0.01 µM [4]: 5 to 10%
- inhibition at 0.5 µM [4]: 20 to 30%

Compound: CC1(C)CCC(c2ccc(Cl)cc2)=C(CN2CCN(c3ccc(C(=O)NS(=O)(=O)c4ccc(N[C@H](CCN5CC6CCC(C5)N6Cc5ccc6c(c5)CN(N5CCC(=O)NC5=O)C6=O)CSc5ccccc5)c(S(=O)(=O)C(F)(F)F)c4)cc3)CC2)C1 [GT-07813, 4-(4-((4′-chloro-4,4-dimethyl-3,4,5,6-tetrahydro-[1,1′-biphenyl]-2-yl)methyl)piperazin-1-yl)-N-((4-(((2R)-4-(8-((2-(2,4-dioxotetrahydropyrimidin-1(2H)-yl)-1-oxoisoindolin-5-yl)methyl)-3,8-diazabicyclo[3.2.1]octan-3-yl)-1-(phenylthio)butan-2-yl)amino)-3-((trifluoromethyl)sulfonyl)phenyl)sulfonyl)benzamide]
- inhibition at 0.01 µM [1]: 5 to 10%
- inhibition at 0.5 µM [1]: 60 to 70%
- inhibition at 0.01 µM [2]: 15 to 20%
- inhibition at 0.5 µM [2]: 20 to 30%
- inhibition at 0.01 µM [3]: 10 to 15%
- inhibition at 0.5 µM [3]: 80 to 100%

Compound: Nc1ncccc1-c1nc2ccc(-c3ccccc3)nc2n1-c1ccc(C2(NCc3ccc4c(c3)CN(N3CCC(=O)NC3=O)C4=O)CCC2)cc1 [GT-08573, 1-(5-(((1-(4-(2-(2-aminopyridin-3-yl)-5-phenyl-3H-imidazo[4,5-b]pyridin-3-yl)phenyl)cyclobutyl)amino)methyl)-1-oxoisoindolin-2-yl)dihydropyrimidine-2,4 (1H,3H)-dione]
- Degradation of substrate protein AKT (substrate protein remaining %) (AKT): A (0%≤substrate protein remaining %≤80%)

More lines, main results first:

- Degradation of substrate protein BRM (substrate protein remaining %) (BRM): A (0%≤substrate protein remaining %≤80%)
Compound: Nc1nnc(-c2cc(F)ccc2O)cc1N1CCN(Cc2ccc3c(c2)C(=O)N(N2CCC(=O)NC2=O)C3=O)CC1 [GT-05072, 5-((4-(3-amino-6-(5-fluoro-2-hydroxyphenyl)pyridazin-4-yl)piperazin-1-yl)methyl)-2-(2,4-dioxotetrahydropyrimidin-1(2H)-yl)isoindoline-1,3-dione]
- Degradation of substrate protein BRG1 (substrate protein remaining %) (BRG1): B (80%<substrate protein remaining %≤100%)

- Degradation of substrate protein BRM (substrate protein remaining %) (BRM): A (0%≤substrate protein remaining %≤80%)
- Degradation of substrate protein BRG1 (substrate protein remaining %) (BRG1): A (0%≤substrate protein remaining %≤80%)
Compound: Nc1nnc(-c2cc(F)ccc2O)cc1N1CCN(CC2CCN(c3cccc4c3C(=O)N(N3CCC(=O)NC3=O)C4=O)CC2)CC1 [GT-05069, 4-(4-((4-(3-amino-6-(5-fluoro-2-hydroxyphenyl)pyridazin-4-yl)piperazin-1-yl)methyl)piperidin-1-yl)-2-(2,4-dioxotetrahydropyrimidin-1(2H)-yl)isoindoline-1,3-dione]

- Degradation of substrate protein BRM (substrate protein remaining %) (BRM): A (0%≤substrate protein remaining %≤80%)
Compound: Nc1nnc(-c2ccccc2O)cc1N1CCN(CC2CCN(C3CCN(c4ccc5c(c4)C(=O)N(N4CCC(=O)NC4=O)C5=O)CC3)CC2)CC1 [GT-05095, 5-(4-((4-(3-amino-6-(2-hydroxyphenyl)pyridazin-4-yl)piperazin-1-yl)methyl)-[1,4′-bipiperidin]-1′-yl)-2-(2,4-dioxotetrahydropyrimidin-1(2H)-yl)isoindoline-1,3-dione]
- Degradation of substrate protein BRG1 (substrate protein remaining %) (BRG1): B (80%<substrate protein remaining %≤100%)

- Degradation of substrate protein BRM (substrate protein remaining %) (BRM): A (0%≤substrate protein remaining %≤80%)
Compound: Nc1nnc(-c2cc(F)ccc2O)cc1N1CCN(CC2CCN(c3ccc4c(c3)C(=O)N(N3CCC(=O)NC3=O)C4=O)CC2)CC1 [GT-05068, 5-(4-((4-(3-amino-6-(5-fluoro-2-hydroxyphenyl)pyridazin-4-yl)piperazin-1-yl)methyl)piperidin-1-yl)-2-(2,4-dioxotetrahydropyrimidin-1(2H)-yl)isoindoline-1,3-dione]
- Degradation of substrate protein BRG1 (substrate protein remaining %) (BRG1): B (80%<substrate protein remaining %≤100%)

- inhibition at 0.5 µM ([5]; 0.5 μM, read-out: Inhibition Rate at 0.5 μM (%)): 10 to 20%
- inhibition at 2 µM ([5]; 2 μM, read-out: Inhibition Rate at 2 μM (%)): 53 to 60%
Compound: Cn1ncc(Cl)c1-c1cc(C(=O)N[C@H](CNCC2CCN(c3ccc4c(c3)C(=O)N(N3CCC(=O)NC3=O)C4=O)CC2)Cc2ccc(F)c(F)c2)oc1Cl [GT-08584, (S)-5-chloro-4-(4-chloro-1-methyl-1H-pyrazol-5-yl)-N-(1-(3,4-difluorophenyl)-3-(((1-(2-(2,4-dioxotetrahydropyrimidin-1(2H)-yl)-1,3-dioxoisoindolin-5-yl)piperidin-4-yl)methyl)amino)propan-2-yl) furan-2-carboxamide]
- Degradation of substrate protein AKT (substrate protein remaining %) (AKT): A (0%≤substrate protein remaining %≤80%)
